Test results published in patent US8357710B2, “Bicyclic angiotensin II agonists” (Vicore Pharma AB, priority 2005, dated 2013).

How the values were obtained:
[1] = system: duodenal mucosal alkaline secretion; assay: Test C: duodenal mucosal alkaline secretion assay in barbiturate-anaesthetised rats; format: in vivo, rat; conditions: co-administration with title compounds of the Examples
From the text: Duodenal Mucosal Alkaline Secretion Assay
Compounds were exposed to the duodenal mucosa in barbiturate-anaesthetised rats prepared for in situ titration of duodenal mucosal alkaline secretion, according to the methodology described by Flemström et al in Am. J. Physiol. (1982) 243, G348.

AT2 receptor = target: T1, AT2 receptor (Sus scrofa, UniProt A0A4X1W622); conditions: read-out: dissociation constant (Kd), AT2 receptor; Scatchard analysis, porcine myometrial membranes, [L]=0.057 nM
T1 sequence (A0A4X1W622 1-362): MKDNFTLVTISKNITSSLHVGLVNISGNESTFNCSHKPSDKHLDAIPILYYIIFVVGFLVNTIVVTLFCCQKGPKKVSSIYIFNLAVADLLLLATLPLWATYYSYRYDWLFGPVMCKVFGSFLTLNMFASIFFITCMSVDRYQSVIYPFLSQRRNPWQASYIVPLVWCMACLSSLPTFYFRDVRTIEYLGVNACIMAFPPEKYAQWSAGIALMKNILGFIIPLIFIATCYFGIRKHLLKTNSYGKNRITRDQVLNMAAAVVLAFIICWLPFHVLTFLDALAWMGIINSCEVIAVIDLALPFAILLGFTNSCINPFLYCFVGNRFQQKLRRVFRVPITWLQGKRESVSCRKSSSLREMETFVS
Procedure: Myometrial membranes were prepared from porcine uteri according to the method by Nielsen et al (Clin. Exp. Pharm. Phys. (1997) 24, 309). […] Samples were incubated at 25° C. for 1 h, and binding was terminated by filtration through Whatman GF/B glass-fiber filter sheets using a Brandel cell harvester. The filters were washed with 3×3 mL of Tris-HCl (pH 7.4) and transferred to tubes. The radioactivity was measured using a gamma counter. […] The binding data were best fitted with a one-site fit. All experiments were performed at least in triplicate.

## Cc1cc(Cn2cnc3c2C[C@@H](C(=O)O)N(C(=O)C(c2ccccc2)c2ccccc2)C3)ccc1N(C)C [PD123319]
[1]
  effect of co-administration on the stimulation of mucosal alkalisation by the title compounds: blocked

## Asp^1-Arg^2-Val^3-Tyr^4-Ile^5-His^6-Pro^7-Phe^8 [Ang II]
AT2 receptor
  Kd: 0.7 ± 0.1 nM
